Measured values published in patent US20100204153A1, “USE OF BAND 3 PROTEIN (824-829) AND/OR MELANOCYTE-STIMULATING HORMONE RELEASE-INHIBITING FACTOR AS A THERAPEUTIC AGENT IN THE TREATMENT OF PSEUDOMONAS AERUGINOSA INFECTION” (priority 2007, published 2010).
Where no end group is shown, it is not given here.

Tests used:
[1] = system: HIV-1IIIB; test: HIV-1 antiviral assay in CEM-SS cells
[2] = system: HCMV strain AD169; test: HCMV plaque formation assay in MRC-5 cells; type: cell-based; conditions: for inhibition of HCMV plaque formation as compared to the virus control experiment: 10 micrograms per ml, 7-10 days
[3] = system: hepatitis B virus (HBV) ayw strain; test: HBV assay in HepG2-2.2.15 cells (TaqMan PCR of secreted HBV DNA); type: cell-based; conditions: 10 micrograms per ml; six days
[4] = system: Pseudomonas aeruginosa; test: Pseudomonas aeruginosa assay; type: cell-based; conditions: 10 micrograms per ml; 5×10^5 CFU/mL; combination 0.95:1.05 mole and all other molar ratios from 1:100 to 100:1
[5] = system: murine spleen cells; test: Th1/Th2 cytokine profiling assay; type: cell-based, Balb/c mice; conditions: 10 micrograms per ml; Ovalbumin restimulation, 72 hours; combination 0.95:1.05 mole
[6] = system: Primary Human endothelial cells (HUVEC); test: Endothelial cell migration assay; type: cell-based; conditions: 10 micrograms per ml; 22 hours
Procedure: Thereafter, designated concentration of testing peptides—10 micrograms per ml—was added in duplicate wells.

[7] = system: HUVEC; test: Endothelial tube formation assay; type: cell-based, human; conditions: 10 micrograms per ml; 20 hours
Text: Positive control was vehicle only.

| Molecule | antiviral activity of positive control compounds (HIV-1) [1] | antiviral activity of positive control compound (HCMV) ([2]; positive control compound) | inhibition of HBV replication as compared to the virus control infection [3] | inhibition of HCMV plaque formation as compared to the virus control experiment [2] | inhibition of the growth of Pseudomonas aeruginosa [4] [%] | change of the production of IFN-γ [5] | change of the production of TNF-alpha [5] | decrease of the production of IL-2 [5] [%] | decrease of the production of IL-4 [5] [%] | decrease of the production of IL-5 [5] [%] | induction of the migration of endothelial cells [6] [%] | inhibition of the tube formation of human endothelial cells [7] [%] | inhibition of the migration of human endothelial cells [6] [%] |
| --- | --- | --- | --- | --- | --- | --- | --- | --- | --- | --- | --- | --- | --- |
| Cc1cn([C@H]2C[C@H](N=[N+]=[N-])[C@@H](CO)O2)c(=O)[nH]c1=O [AZT] | expected levels of antiviral activity |  |  |  |  |  |  |  |  |  |  |  |  |
| Nc1nc(O)c2ncn(COC(CO)CO)c2n1 [Ganciclovir, reference compound] |  | expected levels of antiviral activity |  |  |  |  |  |  |  |  |  |  |  |
| CC(C)(C)NC(=O)[C@@H]1CN(Cc2cccnc2)CCN1C[C@@H](O)C[C@@H](Cc1ccccc1)C(=O)N[C@H]1c2ccccc2C[C@H]1O [indinavir] | expected levels of antiviral activity |  |  |  |  |  |  |  |  |  |  |  |  |
| Pro-Leu-Gly-NH2 [Peptide 2] |  |  | 10.9% | did not inhibit | 100 | did not significantly change | did not significantly change | 100 | 100 | 42.3 | 8 | 16 |  |
| Tyr-Val-Lys-Arg-Val-Lys-OH (YVKRVK-OH) [Peptide 1] |  |  | did not inhibit | did not inhibit | 100 | did not significantly change | did not significantly change | 41.9 | 58.2 | 37.4 |  | 21 | 8 |
